Source: publication PMC6296572 (Journal of Genetic Engineering & Biotechnology, 2017)

System: laccase from Trichoderma harzianum strain HZN10 (free, purified)
Assay: ABTS oxidation, absorbance at […] nm
Format: biochemical
Conditions: free enzyme; ABTS 0.2-2.4 mM; standard assay 0.1 M sodium phosphate pH 6, 25 °C

## CCn1c(=NN=c2sc3cc(S(=O)(=O)O)ccc3n2CC)sc2cc(S(=O)(=O)O)ccc21 [ABTS, 2,2′-azino-bis(3-ethylbenzothiazoline-6-sulfonic acid)]
  Km: 500 µM
